In patent publication US20230190950A1, “COMPOSITIONS AND METHODS FOR THE TREATMENT OF BACTERIAL INFECTIONS” (Cidara Therapeutics, Inc., priority 2017, published 2023):

Key:
Conditions in all cases: 40% blood, 90 min
PA 7874 COL^R = assay: MBC in human blood, PA 7874; type: cell-based, Pseudomonas aeruginosa
Description: (§1) Overnight stationary-phase cultures were centrifuged at 3,500×g for 10 min at room temperature and resuspended in 1×PBS to an optical density at 600 nm (OD600) of 0.4 (1×10^8 colony forming units [CFU]/mL) in RPMI with L-glutamine and phenol red (Life Technologies). […] MBC was defined as the minimum conjugate concentration required for complete bacterial clearance. An untreated growth control (40% blood, 0 μg/mL conjugate) was included in all assays.
(§2) Overnight stationary-phase cultures were centrifuged at 3,500×g for 10 min at room temperature and resuspended in 1×PBS to an optical density at 600 nm (OD600) of 0.4 (1×10^8 colony forming units [CFU]/ml) in RPMI with L-glutamine and phenol red (Life Technologies). Bacteria were diluted 1:25 in RPMI (4×10^6 CFU/ml) and 10 ul added to wells of a non-binding 96-well plate (Corning 3641) containing 80 ul of 50% hirudin anti-coagulated blood (complement active) in RPMI. […] MBC was defined as the minimum conjugate concentration required for bacterial clearance (Table 8A and Table 8B). An untreated growth control (40% blood, 0 ug/ml conjugate) was included in all assays as a growth comparator.

EC 25922 COL^S = assay: MBC in human blood, EC 25922; type: cell-based, Escherichia coli
Description: as §1, §2

AB 5075 COL^S = assay: MBC in human blood, AB 5075; type: cell-based, Acinetobacter baumannii
Description: as §1, §2

PA 01 COL^S = assay: MBC in human blood, PA 01; type: cell-based, Pseudomonas aeruginosa
Description: as §1, §2

hIgG1 Fc: "h-IgG1 Fc (SEQ ID NO: 4)", "MW=54,731 Da"; the unconjugated Fc used as starting protein
>128 mg/L: MBC in human hirudin-anticoagulated blood, P. aeruginosa PA7874 (PA 7874 COL^R) | MBC in human hirudin-anticoagulated blood, E. coli ATCC 25922 (EC 25922 COL^S) | MBC in human hirudin-anticoagulated blood, A. baumannii AB5075 (AB 5075 COL^S) | MBC in human hirudin-anticoagulated blood, P. aeruginosa PAO1 (PA 01 COL^S)
